Our source for the class values is patent US20050197350A1, “Novel quinoline, tetrahydroquinazoline, and pyrimidine derivatives and methods of treatment related to the use thereof” (TAISHO PHARMACEUTICAL CO., LTD., priority 2003, published 2005).

The first test relates to MCH receptors. The experiment in a line: MCH receptor activity class (method not given). The note with it: MCH receptor activity class 1-3 (percent of control at 10^-7 M or IC50).
As to `CN(C)c1ccnc(N[C@H]2CC[C@@H](CNC(=O)Nc3c(Cl)cccc3C(F)(F)F)CC2)n1` [compound 2419], the class was 1 (Class 1: The value of percent of control at 10^−7 M was less than 40% or the value of IC50 was less than 50 nM.).

With `Cc1cccc(C(C)(C)C)c1NC(=O)NC[C@H]1CC[C@@H](Nc2nc3c(c(N(C)C)n2)CCCC3)CC1` [compound 2475, N-(2-tert-butyl-6-methylphenyl)-N′-[(cis-4-{[4-(dimethylamino)-5,6,7,8-tetrahydroquinazolin-2-yl]amino}cyclohexyl)methyl]urea], the class is reported as 1 (Class 1: The value of percent of control at 10^−7 M was less than 40% or the value of IC50 was less than 50 nM.).

Staying with this test, now noted: MCH receptor; class by percent of control at 10^-7 M or IC50.
Turning to `CN(C)c1cc(N[C@H]2CC[C@@H](NC(=O)OCc3ccccc3)CC2)nc2ccccc12` [compound 55], the class is 3 (Class 3 The value of percent of control at 10^−7 M was more than 60% or the value of IC50 was more than 200 nM.).

Regarding `CN(C)c1cc(N[C@H]2CC[C@@H](NC(=O)c3cc(C(C)(C)C)nn3Cc3ccccc3)CC2)nc2ccccc12` [compound 85], the class is given as 3 (Class 3 The value of percent of control at 10^−7 M was more than 60% or the value of IC50 was more than 200 nM.).

Turning to `Cc1noc(C)c1NC(=O)N[C@H]1CC[C@@H](Nc2nc3c(c(N(C)C)n2)CCCC3)CC1` [compound 1924], the class is listed as 3 (Class 3 The value of percent of control at 10^−7 M was more than 60% or the value of IC50 was more than 200 nM.).

With `CN(C)c1cc(N[C@H]2CC[C@@H](NC(=O)c3ccc(F)c(Cl)c3F)CC2)nc2ccccc12` [compound 62, 3-chloro-N-(cis-4-{[4-(dimethylamino)quinolin-2-yl]amino}cyclohexyl)-2,4-difluorobenzamide], the class is 2 (Class 2: The value of percent of control at 10^−7 M was from 40% to 60% or the value of IC′50 was from 50 nM to 200 nM.).

Regarding `Cc1ccc(C(=O)NC[C@H]2CC[C@@H](Nc3cc(N(C)C)c4ccccc4n3)CC2)cc1[N+](=O)[O-]` [compound 170, N-[(cis-4-{[4-(dimethylamino)quinolin-2-yl]amino}cyclohexyl)methyl]-4-methyl-3-nitrobenzamide], the class is given as 3 (Class 3 The value of percent of control at 10^−7 M was more than 60% or the value of IC50 was more than 200 nM.).

Consider `COc1ccc(NC(=S)N[C@H]2CC[C@@H](Nc3nc4c(c(N(C)C)n3)CCCC4)CC2)cc1` [compound 1949], for which the class is recorded as 3 (Class 3 The value of percent of control at 10^−7 M was more than 60% or the value of IC50 was more than 200 nM.).

The same test, now with this note: activity class 1-3: percent of control at 10^-7 M or IC50.
`CN(C)c1nc(N[C@H]2CC[C@@H](NC(=O)OCC3c4ccccc4-c4ccccc43)CC2)nc2c1CCCC2` [compound 1597]: the class is listed as 3 (Class 3 The value of percent of control at 10^−7 M was more than 60% or the value of IC50 was more than 200 nM.).

For `COc1cc(COC(=O)NC[C@H]2CC[C@@H](Nc3nccc(N(C)C)n3)CC2)c([N+](=O)[O-])cc1OC` [compound 1641], the class is listed as 3 (Class 3 The value of percent of control at 10^−7 M was more than 60% or the value of IC50 was more than 200 nM.).

For the molecule `CN(C)c1ccnc(N[C@H]2CC[C@@H](CNC(=O)OCCOCc3ccccc3)CC2)n1` [compound 1639], the class is 3 (Class 3 The value of percent of control at 10^−7 M was more than 60% or the value of IC50 was more than 200 nM.).

As to `CN(C)c1nc(N[C@H]2CC[C@@H](NC(=O)Oc3ccc(Br)cc3)CC2)nc2c1CCCC2` [compound 1583], the class is 3 (Class 3 The value of percent of control at 10^−7 M was more than 60% or the value of IC50 was more than 200 nM.).

Turning to `CCCCNC(=O)N[C@H]1CC[C@@H](Nc2nc3c(c(N(C)C)n2)CCCC3)CC1` [compound 1695], the class is given as 3 (Class 3 The value of percent of control at 10^−7 M was more than 60% or the value of IC50 was more than 200 nM.).

Staying with this test, now noted: activity class per percent of control at 10^-7 M or IC50.
As to `CN(C)c1nc(N[C@H]2CC[C@@H](NC(=O)Cc3ccc(Oc4ccccc4)cc3)CC2)nc2c1CCCC2` [compound 1004], the class is reported as 2 (Class 2: The value of percent of control at 10^−7 M was from 40% to 60% or the value of IC′50 was from 50 nM to 200 nM.).

On to `COc1cc(CN[C@H]2CC[C@@H](Nc3cc(N(C)C)c4ccccc4n3)CC2)cc(I)c1O` [compound 1102], for which the class is 3 (Class 3 The value of percent of control at 10^−7 M was more than 60% or the value of IC50 was more than 200 nM.).

Staying with this test, now noted: class 1-3 by percent of control at 10^-7 M or IC50.
Consider `CN(C)c1nc(N[C@H]2CC[C@@H](NC(=O)c3cccc(Cl)c3)CC2)nc2c1CCCC2` [compound 460], for which the class was 1 (Class 1: The value of percent of control at 10^−7 M was less than 40% or the value of IC50 was less than 50 nM.).

The same test, now with this note: class by percent of control at 10^-7 M or IC50.
As for `CN(C)c1cc(N[C@H]2CC[C@@H](NCC3CN(C(c4ccccc4)c4ccccc4)C3)CC2)nc2ccccc12` [compound 1462], the class was 1 (Class 1: The value of percent of control at 10^−7 M was less than 40% or the value of IC50 was less than 50 nM.).

Regarding `CN(C)c1ccnc(N[C@H]2CC[C@@H](NC(=O)c3c4ccccc4cc4ccccc34)CC2)n1` [compound 892], the class is given as 3 (Class 3 The value of percent of control at 10^−7 M was more than 60% or the value of IC50 was more than 200 nM.).

In the case of `COc1ccc(CNC[C@H]2CC[C@@H](Nc3nccc(N(C)C)n3)CC2)cc1` [compound 1262], the class is reported as 3 (Class 3 The value of percent of control at 10^−7 M was more than 60% or the value of IC50 was more than 200 nM.).

Turning to `COc1ccc(NC(=O)N[C@H]2CC[C@@H](Nc3nccc(N(C)C)n3)CC2)c(C)c1` [compound 2246], the class is 3 (Class 3 The value of percent of control at 10^−7 M was more than 60% or the value of IC50 was more than 200 nM.).

In the case of `CN(C)c1nc(N[C@H]2CC[C@@H](CNC(=O)CC3CCCC3)CC2)nc2c1CCCC2` [compound 637], the class is recorded as 3 (Class 3 The value of percent of control at 10^−7 M was more than 60% or the value of IC50 was more than 200 nM.).

As to `COc1cc(Br)cc(CNC[C@H]2CC[C@@H](Nc3nc4c(c(N(C)C)n3)CCCC4)CC2)c1O` [compound 1371], the class is 2 (Class 2: The value of percent of control at 10^−7 M was from 40% to 60% or the value of IC′50 was from 50 nM to 200 nM.).

For the molecule `CCc1cccc(C(C)C)c1NC(=S)N[C@H]1CC[C@@H](Nc2nc3c(c(N(C)C)n2)CCCC3)CC1` [compound 1742], the class is reported as 3 (Class 3 The value of percent of control at 10^−7 M was more than 60% or the value of IC50 was more than 200 nM.).

`CSc1ncccc1C(=O)NC[C@H]1CC[C@@H](Nc2nccc(N(C)C)n2)CC1` [compound 387]: the class is listed as 3 (Class 3 The value of percent of control at 10^−7 M was more than 60% or the value of IC50 was more than 200 nM.).

For the molecule `COc1cc(NC(=S)N[C@H]2CC[C@@H](Nc3nc4c(c(N(C)C)n3)CCCC4)CC2)c(OC)cc1Cl` [compound 1788], the class was 2 (Class 2: The value of percent of control at 10^−7 M was from 40% to 60% or the value of IC′50 was from 50 nM to 200 nM.).

Take `CN(C)c1ccnc(N[C@H]2CC[C@@H](NC(=O)c3ccc([N+](=O)[O-])s3)CC2)n1` [compound 827, N-(cis-4-{[4-(dimethylamino)pyrimidin-2-yl]amino}cyclohexyl)-5-nitrothiophene-2-carboxamide]: the class is reported as 2 (Class 2: The value of percent of control at 10^−7 M was from 40% to 60% or the value of IC′50 was from 50 nM to 200 nM.).

On to `COc1cc(Br)cc(CN[C@H]2CC[C@@H](Nc3nc4c(c(N(C)C)n3)CCCC4)CC2)c1O` [compound 1333], for which the class was 3 (Class 3 The value of percent of control at 10^−7 M was more than 60% or the value of IC50 was more than 200 nM.).

Staying with this test, now noted: class by percent of control at 10^−7 M or IC50.
`CCOc1cc(OCC)cc(C(=O)N[C@H]2CC[C@@H](Nc3ncc(C)c(N(C)C)n3)CC2)c1` [compound 2929, N-(cis-4-{[4-(dimethylamino)-5-methylpyrimidin-2-yl]amino}cyclohexyl)-3,5-diethoxybenzamide]: the class is given as 1 (Class 1: The value of percent of control at 10^−7 M was less than 40% or the value of IC50 was less than 50 nM.).

As to `Cc1cc(N(C)C)nc(N[C@H]2CC[C@@H](C(=O)NCc3ccc(F)c(F)c3)CC2)n1` [compound 2801, cis-N-(3,4-difluorobenzyl)-4-{[4-(dimethylamino)-6-methylpyrimidin-2-yl]amino}cyclohexanecarboxamide], the class is 1 (Class 1: The value of percent of control at 10^−7 M was less than 40% or the value of IC50 was less than 50 nM.).

As for `Cc1cc(N(C)C)nc(N[C@H]2CC[C@@H](C(=O)NCc3cccc(Cl)c3)CC2)n1` [compound 2812, cis-N-(3-chlorobenzyl)-4-{[4-(dimethylamino)-6-methylpyrimidin-2-yl]amino}cyclohexanecarboxamide], the class is on record as 1 (Class 1: The value of percent of control at 10^−7 M was less than 40% or the value of IC50 was less than 50 nM.).

On to `Cc1cnc(N[C@H]2CC[C@@H](CNC(=O)c3cccnc3Oc3cccc(Cl)c3)C2)nc1N(C)C` [compound 3018], for which the class is given as 3 (Class 3 The value of percent of control at 10^−7 M was more than 60% or the value of IC50 was more than 200 nM.).

Turning to `Cc1cccc(C(=O)N[C@H]2CC[C@@H](Nc3nc(C)c(C)c(N(C)C)n3)CC2)c1` [compound 2837, N-(cis-4-{[4-(dimethylamino)-5,6-dimethylpyrimidin-2-yl]amino}cyclohexyl)-3-methylbenzamide], the class was 1 (Class 1: The value of percent of control at 10^−7 M was less than 40% or the value of IC50 was less than 50 nM.).

With `COc1cccc(N(C)CC(=O)N[C@H]2CC[C@@H](Nc3ncc(C)c(N(C)C)n3)CC2)c1` [compound 2947], the class is 1 (Class 1: The value of percent of control at 10^−7 M was less than 40% or the value of IC50 was less than 50 nM.).

For `COc1ccccc1Oc1ncccc1C(=O)N[C@H]1CC[C@@H](Nc2ncc(C)c(N(C)C)n2)CC1` [compound 2890, N-(cis-4-{[4-(dimethylamino)-5-methylpyrimidin-2-yl]amino}cyclohexyl)-2-(2-methoxyphenoxy)nicotinamide], the class is recorded as 1 (Class 1: The value of percent of control at 10^−7 M was less than 40% or the value of IC50 was less than 50 nM.).
